In patent US7741314B2, “2-Methylene-(20R,25S)-19,27-Dinor-(22E)-Vitamin D Analogs” (Wisconsin Alumni Research Foundation, priority 2006, dated 2010):
pEC50, pKi: −log10 of the molar value. Where two headings read alike, the source gives them in different places.

Experiments:
[1] = system: 24-hydroxylase (24Ohase) gene promoter in ROS 17/2.8 (bone) cells; test: In vitro transcription assay (luciferase reporter); format: cell-based; conditions: FIG. 3; for pEC50: ROS 17/2.8 cells, 24Ohase promoter-luciferase, 16 h, read-out: EC50, transcriptional activity in bone cells
Experimental: Transcription activity was measured in ROS 17/2.8 (bone) cells that were stably transfected with a 24-hydroxylase (24Ohase) gene promoter upstream of a luciferase reporter gene (Arbour et al., 1998). Cells were given a range of doses. Sixteen hours after dosing the cells were harvested and luciferase activities were measured using a luminometer.
RLU=relative luciferase units.

[2] = system: Human promyelocytic leukemia (HL60) cells; test: HL-60 differentiation (nitro blue tetrazolium reduction); format: cell-based; conditions: FIG. 2; for pEC50: HL-60 cells, four days after treatment, read-out: EC50, HL-60 cell differentiation
Experimental: The study drugs were dissolved in ethanol and the concentrations determined using UV spectrophotometry. Serial dilutions were prepared so that a range of drug concentrations could be tested without changing the final concentration of ethanol (≦0.2%) present in the cell cultures.
Human promyelocytic leukemia (HL60) cells were grown in RPMI-1640 medium containing 10% fetal bovine serum. The cells were incubated at 37° C. in the presence of 5% CO2.
HL60 cells were plated at 1.2×10^5 cells/ml. Eighteen hours after plating, cells in duplicate were treated with drug. Four days later, the cells were harvested and a nitro blue tetrazolium reduction assay was performed (Collins et al., 1979; J. Exp. Med. 149:969-974). The percentage of differentiated cells was determined by counting a total of 200 cells and recording the number that contained intracellular black-blue formazan deposits. Verification of differentiation to monocytic cells was determined by measuring phagocytic activity (data not shown).

vitamin D-deficient rats [3] = test: Intestinal calcium transport (everted gut sac method); format: in vivo, rat; conditions: FIG. 5; for intestinal calcium transport: everted gut sac
Experimental: (§1) Male, weanling Sprague-Dawley rats were placed on Diet 11 (0.47% Ca) diet+AEK for one week followed by Diet 11 (0.02% Ca)+AEK for 3 weeks. The rats were then switched to a diet containing 0.47% Ca for one week followed by two weeks on a diet containing 0.02% Ca. Dose administration began during the last week on 0.02% calcium diet. Four consecutive ip doses were given approximately 24 hours apart. Twenty-four hours after the last dose, blood was collected from the severed neck and the concentration of serum calcium determined as a measure of bone calcium mobilization. The first 10 cm of the intestine was also collected for intestinal calcium transport analysis using the everted gut sac method.

vitamin D-deficient rats [4] = test: Bone calcium mobilization (serum calcium); format: in vivo, rat; conditions: FIG. 4
Experimental: as §1

[5] = biological target: T1, full-length recombinant rat vitamin D receptor (Rattus norvegicus, UniProt P13053); test: Vitamin D receptor binding, competition with [3H]-1,25(OH)2D3; conditions: FIG. 1
T1 construct: Full-length recombinant rat receptor was expressed in E. coli; histidine tag (C); made in house; host or cells: E. coli BL21 (DE3) Codon Plus RIL
T1 sequence (P13053 1-423): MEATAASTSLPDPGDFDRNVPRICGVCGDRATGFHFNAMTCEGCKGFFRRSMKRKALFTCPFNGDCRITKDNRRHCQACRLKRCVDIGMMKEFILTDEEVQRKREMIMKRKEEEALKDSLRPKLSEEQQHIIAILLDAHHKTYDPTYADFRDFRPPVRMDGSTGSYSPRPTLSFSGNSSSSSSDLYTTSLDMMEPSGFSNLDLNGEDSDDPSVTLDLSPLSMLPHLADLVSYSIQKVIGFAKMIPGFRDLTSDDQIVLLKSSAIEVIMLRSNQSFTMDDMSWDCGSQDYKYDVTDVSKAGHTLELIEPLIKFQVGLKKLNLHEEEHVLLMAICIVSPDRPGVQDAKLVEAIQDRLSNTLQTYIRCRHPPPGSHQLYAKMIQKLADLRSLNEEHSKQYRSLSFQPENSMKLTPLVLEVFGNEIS
Experimental: Full-length recombinant rat receptor was expressed in E. coli BL21 (DE3) Codon Plus RIL cells and purified to homogeneity using two different column chromatography systems. The first system was a nickel affinity resin that utilizes the C-terminal histidine tag on this protein. The protein that was eluted from this resin was further purified using ion exchange chromatography (S-Sepharose Fast Flow). Aliquots of the purified protein were quick frozen in liquid nitrogen and stored at −80° C. until use. For use in binding assays, the protein was diluted in TEDK50 (50 mM Tris, 1.5 mM EDTA, pH7.4, 5 mM DTT, 150 mM KCl) with 0.1% Chaps detergent. The receptor protein and ligand concentration were optimized such that no more than 20% of the added radiolabeled ligand was bound to the receptor.
Radiolabeled and unlabeled ligands were added to 100 mcl of the diluted protein at a final ethanol concentration of ≦10%, mixed and incubated overnight on ice to reach binding equilibrium. The following day, 100 mcl of hydroxylapatite slurry (50%) was added to each tube and mixed at 10-minute intervals for 30 minutes. The hydroxylapaptite was collected by centrifugation and then washed three times with Tris-EDTA buffer (50 mM Tris, 1.5 mM EDTA, pH 7.4) containing 0.5% Titron X-100. […] Total binding was determined from the tubes containing only radiolabeled ligand.

SMILES	pEC50 [1]	pEC50 [2]	intestinal calcium transport (vitamin D-deficient rats [3]; 260 pmol/day)	serum calcium levels (vitamin D-deficient rats [4]; all dosages, rats on low calcium diet (0.02%))	transcriptional activity in bone cells compared to 1α,25-dihydroxyvitamin D3 ([1]; in words)	pKi ([5]; full-length recombinant rat VDR)	binding to the receptor compared to 1,25-(OH)2D3 ([5]; in words)	pEC50 ([2]; Homo sapiens, 96 h)	potency on HL-60 cell differentiation compared to 1,25(OH)2D3 ([2]; in words)	intestinal calcium transport (vitamin D-deficient rats [3]; 7020 pmol/day)	intestinal calcium transport activity compared to 1,25(OH)2D3 (vitamin D-deficient rats [3]; in words)	bone calcium mobilization (serum calcium) (vitamin D-deficient rats [4]; 260 pmol/day ip for 4 consecutive days, rats on low calcium diet (0.02%))	bone calcium mobilization (serum calcium) (vitamin D-deficient rats [4]; 7020 pmol/day, rats on low calcium diet (0.02%))	bone calcium mobilization activity compared to 1,25(OH)2D3 (vitamin D-deficient rats [4]; in words)
C=C1/C(=C\C=C2/CCC[C@]3(C)[C@@H]([C@H](C)CCCC(C)(C)O)CC[C@@H]23)C[C@@H](O)C[C@@H]1O [1,25(OH)2D3, 1α,25-dihydroxyvitamin D3, reference compound]	9.70	8.70	promotes a significant increase	increased serum calcium levels at all dosages										
C=C1[C@H](O)CC(=C/C=C2\CCC[C@]3(C)[C@@H]([C@H](C)/C=C/C[C@H](C)O)CC[C@@H]23)C[C@H]1O [REN, 2-methylene-(20R,25S)-19,27-dinor-(22E)-1α,25-dihydroxyvitamin D3]	10.00		promotes intestinal calcium transport only slightly		about the same transcriptional activity	9.40	bound equally to the receptor	9.00	as potent as 1,25(OH)2D3	significant intestinal calcium transport activity	very little activity	did not result in mobilization of bone calcium	without any substantial effect	very little bone calcium mobilization activity
